Legend:
MMP-2 = test: Substrate phage display with NGS: relative probability (RP) of P3-P1' tetramer clusters; type: biochemical, human; conditions: for MMP2 relative probability (RP): MMP2 tetramers from unique substrates, unrounded values; for corresponding MMP2 relative probability (RP): MMP9 tetramers from unique substrates, RP of same tetramer for MMP2; for relative probability (RP) of matching tetramer: P3-P1' tetramer matching the MS detected MMP2 cleavage sequence, RP_above_4.5; for avg_RP: MMP2 - no binning
MMP-9 = test: as above; type: biochemical, human; conditions: for corresponding MMP9 relative probability (RP): MMP2 tetramers from unique substrates, RP of same tetramer for MMP9; for MMP9 relative probability (RP): MMP9 tetramers from unique substrates, unrounded values
[1] = RP of the P3-P1' tetramer cluster contained in the hexamer, 200 nM MMP-2, 2 h, 37°C, two rounds of selection
[2] = MMP9, RP of the P3-P1' tetramer contained in the hexamer substrate (substrate phage display, NGS)
[3] = RP according to MMP2, P3-P1' tetramer of unique physiologic MMP2 substrates from MEROPS
[4] = RP of matching tetramer, common MMP2-9 selectome
[5] = MMP9, RP of the P3-P1' tetramer matching the MS detected cleavage, RP above 4.7, substrate phage display with NGS
[6] = RP of matching tetramer, common MMP2-9 selectome, RP above KL threshold
[7] = RP of the P3-P1' tetramer, MMP2 substrate phage display/NGS, tetramers of physiologic MEROPS substrates common to MMP2 and MMP9
[8] = RP of the P3-P1' tetramer, MMP9 substrate phage display/NGS, tetramers of physiologic MEROPS substrates common to MMP2 and MMP9
[9] = MMP2, RP of matching P3-P1' tetramer, common set of MMP2-9 selectome, RP above KL threshold
[10] = MMP9, RP of matching P3-P1' tetramer, common set of MMP2-9 selectome
[11] = normalized RP of matching tetramer, unique part of MMP2 selectome
[12] = RP according to MMP9, P3-P1' tetramer of unique physiologic MMP9 substrates from MEROPS
[13] = average relative probability of the tetramer, redundant tetramers averaged out
[14] = tetramer probability in MMP9 set / naive library, 200 nM protease, 2 h, 37°C
[15] = average relative probability of the P3-P1' tetramer, redundant tetramers have been averaged out

## PAPNSL
MMP-2; [1]
  relative probability (RP): 24.6338
MMP-9; [2]
  relative probability (RP): 34.9686

## PAQLHV
MMP-2; [1]
  relative probability (RP): 32.8467
MMP-9; [2]
  relative probability (RP): 43.1805

## PAVM
MMP-2
  MMP2 relative probability (RP): 17.6491
MMP-2; [3]
  Relative probability (RP) rank: 2339
  relative probability (RP): 17.65
MMP-9
  corresponding MMP9 relative probability (RP): 4.1214

## PDAL
MMP-2; [4]
  relative probability (RP) (acc.to MMP2): 7.73
MMP-9; [5]
  relative probability (RP): 29.54
MMP-9; [6]
  relative probability (RP) (acc.to MMP9): 29.54

## PDGL
MMP-2; [4]
  relative probability (RP) (acc.to MMP2): 6.23
MMP-9; [5]
  relative probability (RP): 23.13
MMP-9; [6]
  relative probability (RP) (acc.to MMP9): 23.13

## PEAI
MMP-2; [7]
  relative probability (RP) (acc.to MMP2): 22.52
MMP-9; [8]
  relative probability (RP) (acc.to MMP9): 36.36

## PEAQ
MMP-2
  corresponding MMP2 relative probability (RP): 6.464
MMP-9
  MMP9 relative probability (RP): 2.403

## PEGL
MMP-2; [7]
  relative probability (RP) (acc.to MMP2): 29.5
MMP-9; [8]
  relative probability (RP) (acc.to MMP9): 39.41

## PEGLQG
MMP-2; [1]
  relative probability (RP): 29.5031
MMP-9; [2]
  relative probability (RP): 39.4116

## PENF
MMP-2; [7]
  relative probability (RP) (acc.to MMP2): 16
MMP-9; [8]
  relative probability (RP) (acc.to MMP9): 20.05
MMP-9; tetramer annotation of MMP-9 cleavage sites in physiologic substrates from MEROPS
  relative probability (RP): 20.05

## PEPAAL
MMP-2; [1]
  relative probability (RP): 35.8015
MMP-9; [2]
  relative probability (RP): 47.6262

## PEQL
MMP-2; [9]
  relative probability (RP) (acc.to MMP2): 12.46
MMP-2
  relative probability (RP) of matching tetramer: 12.46
MMP-2; [4]
  relative probability (RP) (acc.to MMP2): 12.46
MMP-9; [10]
  relative probability (RP) (acc.to MMP9): 23.26
MMP-9; [5]
  relative probability (RP): 23.26
MMP-9; [6]
  relative probability (RP) (acc.to MMP9): 23.26

## PESW
MMP-2
  relative probability (RP) of matching tetramer: 4.73
MMP-2; RP of matching tetramer, unique part of MMP2 selectome, RP above KL threshold
  relative probability (RP) (acc.to MMP2): 4.73
MMP-2; [11]
  normalized RP - MMP2: 0.1295
MMP-9; RP of matching tetramer, unique part of MMP2 selectome
  relative probability (RP) (acc.to MMP9): 1.77
MMP-9; [11]
  normalized RP - MMP9: 0.03379

## PFGV
MMP-2; [4]
  relative probability (RP) (acc.to MMP2): 6.82
MMP-9; [5]
  relative probability (RP): 38.95
MMP-9; [6]
  relative probability (RP) (acc.to MMP9): 38.95

## PFLI
MMP-2
  corresponding MMP2 relative probability (RP): 22.6532
MMP-9
  MMP9 relative probability (RP): 0.05937

## PGAY
MMP-2; [7]
  relative probability (RP) (acc.to MMP2): 27.42
MMP-9; [8]
  relative probability (RP) (acc.to MMP9): 33.81

## PGEI
MMP-2; [9]
  relative probability (RP) (acc.to MMP2): 14.72
MMP-2
  relative probability (RP) of matching tetramer: 14.72
MMP-2; [4]
  relative probability (RP) (acc.to MMP2): 14.72
MMP-9; [10]
  relative probability (RP) (acc.to MMP9): 12.83
MMP-9; [5]
  relative probability (RP): 12.83
MMP-9; [6]
  relative probability (RP) (acc.to MMP9): 12.83

## PGGV
MMP-2
  corresponding MMP2 relative probability (RP): 10.6032
MMP-9
  MMP9 relative probability (RP): 2.434

## PGMI
MMP-2; [9]
  relative probability (RP) (acc.to MMP2): 17.65
MMP-2
  relative probability (RP) of matching tetramer: 17.65
MMP-2; [4]
  relative probability (RP) (acc.to MMP2): 17.65
MMP-9; [10]
  relative probability (RP) (acc.to MMP9): 13.36
MMP-9; [5]
  relative probability (RP): 13.36
MMP-9; [6]
  relative probability (RP) (acc.to MMP9): 13.36

## PGNR
MMP-2; [7]
  relative probability (RP) (acc.to MMP2): 0.12
MMP-9; [8]
  relative probability (RP) (acc.to MMP9): 0.05

## PGPAGQ
MMP-2; [1]
  relative probability (RP): 28.0249
MMP-9; [2]
  relative probability (RP): 28.6679

## PGPIGI
MMP-2; [1]
  relative probability (RP): 31.281
MMP-9; [2]
  relative probability (RP): 46.0584

## PGPIGW
MMP-2; [1]
  relative probability (RP): 31.1565
MMP-9; [2]
  relative probability (RP): 36.9425

## PHGLAT
MMP-2; [1]
  relative probability (RP): 32.9009
MMP-9; [2]
  relative probability (RP): 46.2798

## PHGYKG
MMP-2; [1]
  relative probability (RP): 24.9359
MMP-9; [2]
  relative probability (RP): 44.1642

## PHNILS
MMP-2; [1]
  relative probability (RP): 24.3767
MMP-9; [2]
  relative probability (RP): 42.0557

## PHPRLL
MMP-2; [1]
  relative probability (RP): 23.2612
MMP-9; [2]
  relative probability (RP): 38.6219

## PIQLQS
MMP-2; [1]
  relative probability (RP): 19.2979
MMP-9; [2]
  relative probability (RP): 35.2784

## PIQW
MMP-2
  MMP2 relative probability (RP): 8.258
MMP-2; [3]
  Relative probability (RP) rank: 5694
  relative probability (RP): 8.26
MMP-2; [7]
  relative probability (RP) (acc.to MMP2): 8.26
MMP-9
  corresponding MMP9 relative probability (RP): 1.638
MMP-9; [12]
  Relative probability (RP) rank: 11221
  relative probability (RP): 1.64
MMP-9; [8]
  relative probability (RP) (acc.to MMP9): 1.64

## PKALPY
MMP-2; [1]
  relative probability (RP): 34.4858
MMP-9; [2]
  relative probability (RP): 48.3581

## PKFL [P3-P1' tetramer cluster]
MMP-2; [13]
  avg_RP: 23.745
MMP-9; tetramer projected onto MMP-9 cleavage sites determined by Prudova et al. (2010)
  relative probability (RP): 42.75

## PKGA
MMP-2; [7]
  relative probability (RP) (acc.to MMP2): 0
MMP-9; [8]
  relative probability (RP) (acc.to MMP9): 1.22

## PKGQ
MMP-2; [7]
  relative probability (RP) (acc.to MMP2): 21.45
MMP-9; [8]
  relative probability (RP) (acc.to MMP9): 35.93

## PKGYQG
MMP-2; [1]
  relative probability (RP): 30.7046
MMP-9; [2]
  relative probability (RP): 46.8538

## PKKL
MMP-2; [7]
  relative probability (RP) (acc.to MMP2): 8.1
MMP-9; [8]
  relative probability (RP) (acc.to MMP9): 23.95

## PKWM [P3-P1' tetramer cluster]
MMP-2; [13]
  avg_RP: 23.7433
MMP-9; [14]
  relative probability (RP): 51.5185

## PLAV
MMP-2; [9]
  relative probability (RP) (acc.to MMP2): 29.15
MMP-2
  relative probability (RP) of matching tetramer: 29.15
MMP-2; [4]
  relative probability (RP) (acc.to MMP2): 29.15
MMP-9; [10]
  relative probability (RP) (acc.to MMP9): 44.77
MMP-9; [5]
  relative probability (RP): 44.77
MMP-9; [6]
  relative probability (RP) (acc.to MMP9): 44.77

## PLNV
MMP-2; [15]
  avg_RP: 24.9266
MMP-2; [9]
  relative probability (RP) (acc.to MMP2): 24.93
MMP-2
  relative probability (RP) of matching tetramer: 24.93
MMP-2; [4]
  relative probability (RP) (acc.to MMP2): 24.93
MMP-9; [10]
  relative probability (RP) (acc.to MMP9): 43.38
MMP-9; [5]
  relative probability (RP): 43.38
MMP-9; [6]
  relative probability (RP) (acc.to MMP9): 43.38

## PLQLQT
MMP-2; [1]
  relative probability (RP): 30.1017
MMP-9; [2]
  relative probability (RP): 45.7856

## PLRQIG
MMP-2; [1]
  relative probability (RP): 11.8624
MMP-9; [2]
  relative probability (RP): 29.0862

## PLSL
MMP-2; [15]
  avg_RP: 33.5282
MMP-2; [4]
  relative probability (RP) (acc.to MMP2): 33.53
MMP-9; [5]
  relative probability (RP): 48.17
MMP-9; [6]
  relative probability (RP) (acc.to MMP9): 48.17

## PLTL
MMP-2; [15]
  avg_RP: 24.2603
MMP-2; [9]
  relative probability (RP) (acc.to MMP2): 24.26
MMP-2
  relative probability (RP) of matching tetramer: 24.26
MMP-2; [4]
  relative probability (RP) (acc.to MMP2): 24.26
MMP-9; [10]
  relative probability (RP) (acc.to MMP9): 41.2
MMP-9; [5]
  relative probability (RP): 41.2
MMP-9; [6]
  relative probability (RP) (acc.to MMP9): 41.2

## PMAL
MMP-2; [13]
  avg_RP: 34.1737
MMP-2; [4]
  relative probability (RP) (acc.to MMP2): 34.17
MMP-9; [5]
  relative probability (RP): 48.95
MMP-9; [6]
  relative probability (RP) (acc.to MMP9): 48.95

## PMALMD
MMP-2; [1]
  relative probability (RP): 34.1737
MMP-9; [2]
  relative probability (RP): 48.9468

## PMAM [P3-P1' tetramer cluster]
MMP-2; [13]
  avg_RP: 30.2676
MMP-9; [14]
  relative probability (RP): 51.1831

## PMDIHA
MMP-2; [1]
  relative probability (RP): 8.254
MMP-9; [2]
  relative probability (RP): 39.7367

## PMFI
MMP-2; [4]
  relative probability (RP) (acc.to MMP2): 8.26
MMP-9; [5]
  relative probability (RP): 35.87
MMP-9; [6]
  relative probability (RP) (acc.to MMP9): 35.87

## PNSM
MMP-2; [9]
  relative probability (RP) (acc.to MMP2): 14.95
MMP-2
  relative probability (RP) of matching tetramer: 14.95
MMP-2; [4]
  relative probability (RP) (acc.to MMP2): 14.95
MMP-9; [10]
  relative probability (RP) (acc.to MMP9): 27.58
MMP-9; [5]
  relative probability (RP): 27.58
MMP-9; [6]
  relative probability (RP) (acc.to MMP9): 27.58

## PPGA
MMP-2; [7]
  relative probability (RP) (acc.to MMP2): 0
MMP-9; [8]
  relative probability (RP) (acc.to MMP9): 0.07

## PPGE
MMP-2; [7]
  relative probability (RP) (acc.to MMP2): 0
MMP-9; [8]
  relative probability (RP) (acc.to MMP9): 0.11

## PPGK
MMP-2; [7]
  relative probability (RP) (acc.to MMP2): 0.14
MMP-9; [8]
  relative probability (RP) (acc.to MMP9): 0

From paper PMC7932537, “Quantitative profiling of protease specificity” (PLoS Computational Biology, 2021)
